For orientation: IC50 means the point on the concentration scale where inhibition reaches its midpoint. Low values mean higher potency, high ones lower potency. The Cmax is the highest concentration seen after dosing. In general, Tmax refers to the time from dosing to the highest level.

Consider one compound from paper PMC11148772, “Inhibition of protein translational machinery in triple-negative breast cancer as a promising therapeutic strategy” (Cell Reports Medicine, 2024).

One data set deals with 4T1 cells. As to the kind of experiment: MTT cell viability assay. The format is cell-based. The note with it: Mus musculus, 48 h. The protocol: (§1) MDA-MB-231 (5000 cells per well), MDA-MB-468 (6000 cells per well), SUM159 (3000 cells per well), 4T1 (2000 cells per well), EMT6 (2000 cells per well), E0771 (3000 cells per well), MCF10A (5000 cells per well) and MCF12A (5000 cells per well) cells were seeded in 96-well culture plates. On the next day, cells were treated with either DMSO or indicated concentrations of SU056 for 48 h 3-(4,5-dimethylthiazol-2-yl)-2,5-diphenyltetrazolium bromide (MTT) (0.5 mg/mL) was dissolved in 1x PBS and 50 μL were added to each well and allowed to form formazan crystals (1–2 h) followed by removal of MTT. Formazan crystals were dissolved in DMSO and plates were scanned at 570nm using a Tecan multimode plate reader.
(In general: Tetrazolium dyes change colour on reduction, which living cells bring about.)

A further data set deals with E0771 cells. As to the kind of experiment: MTT cell viability assay. The data set is classed as cell-based. As to conditions: Mus musculus, 48 h. The protocol: as §1
The next data set concerns EMT6 cells. As to the kind of experiment: MTT cell viability assay. The format is cell-based. As to conditions: Mus musculus, 48 h. The protocol: as §1
The next data set has as its system MDA-MB-231 cells. As to the kind of experiment: MTT cell viability assay. As to conditions: Homo sapiens, MDA-MB-231, 48 h. The format is cell-based. The protocol:
as §1

For another data set, the system named is MDA-MB-468 cells. The data set can be described thus: MTT cell viability assay. The format is cell-based. The note with it: Homo sapiens, 48 h. The protocol:
as §1

For the next data set, the system named is SUM159 cells. The data set can be described thus: MTT cell viability assay. The data set is classed as cell-based. As to conditions: Homo sapiens, 48 h. The method, then: as §1
For data set [1], the system named is normal breast epithelial cells MCF10A. The data set can be described thus: MTT cell viability assay. The format is cell-based. As to conditions: Homo sapiens, MCF-10A, 48 h. The protocol: as §1
(§2) Data S1. SU056 induces cell cycle arrest and apoptotic cell death, related to Figure 1 A) The growth inhibitory effect of SU056 was evaluated using the MTT assay (0.5 mg/ml in 1x PBS). Normal breast epithelial cells (MCF10A and MCF12A) were plated in a 96 well plate. On the next day, cells were treated with vehicle (DMSO) alone or 0.005-50 μM of […]
(§3) SU056 in fresh medium. […]
(§4) SU056 treatment led to cell cycle arrest at the G2/M phase and induced cell death in TNBC cells. E) MDA-MB-231 and F) MDA-MB-468 cells were analyzed for cell death using Annexin V-FITC Apoptosis Assay kit. Cell lysates were analyzed for Bax and BCL-2 proteins. b-actin was probed to ensure equal protein loading. […]

Data set [2] relates to normal breast epithelial cells MCF12A. The data set can be described thus: MTT cell viability assay. The format is cell-based. The note with it: Homo sapiens, MCF-12A, 48 h. The method, then:
as §1, §2, §3, §4

The nature of a further data set: Pharmacokinetics study. The data set is classed as in vivo, mouse. As to conditions: 20 mg/kg oral. The protocol: Female C57BL/6J mice of 6–7 weeks were purchased from Jackson Laboratory and housed under standard laboratory conditions. SU056 (20 mg/kg) was given by oral gavage. Blood (200–300 μL) was collected retro-orbitally in EDTA-treated tubes after 15, 30, 60, 120, 240 and 360 min of SU056 administration. Blood plasma collected by centrifugation (7000 rpm; 10 min). The concentration of SU056 in plasma was analyzed using an Agilent 6490 iFunnel triple quadrupole mass spectrometer, coupled with an Agilent 1290 infinity II UHPLC. A ZORBAX C18 analytical column (Eclipse Plus, 2.1 × 50 mm, 1.8 μm particle size) was employed in the study. To create the mobile phase, a solution was prepared with 60% water buffered with 0.1% formic acid and 4mM ammonium formate, along with a solution of 40% acetonitrile buffered with 0.1% formic acid. The mobile phase flow rate was set to 0.4 mL/min and the column temperature was adjusted to 30°C. Positive ion mode was selected for operating the electrospray ionization source. Mass spectrometer parameters were optimized as: source temperature 550°C, nebulizer gas (nitrogen) 20 psi, ion spray (IS) voltage 5000 V, collision energy 21 V. Multiple reaction monitoring (MRM) method was used for the detection of SU056 and an internal standard (IS), 4-(2-hydroxyethyl)-6-methoxy-9-phenyl-4,9-dihydrofuro[3,4-b]quinolin-1(3H)-one, a similar analogue of SU056. […] The calibration curve, created with known concentrations of SU056 and IS, enabled the calculation of unknown concentrations of SU056 in plasma at different time points. A 5 μL plasma was taken from each sample and mixed with a 10 μL of IS solution and 990 μL of MS-grade acetonitrile then vortexed for 30 s followed by a 5 min incubation at RT. The mixture was subjected to centrifugation at 11,000 RPM for 15 min at 4°C, leading to the collection of the supernatant which was further cleaned by re-centrifugation. The concentration of SU056 was determined using the HPLC/MS MRM method with each of the three protein-free plasma fractions.[32]

The mark [3] stands for this setting: mouse, female C57BL/6J mice, plasma.

Several values for one entry are separate records, joined by “and”; a condition that tells them apart may be missing. Equal values may be shown once.

`O=C1OCC2=C1C(c1cccc(F)c1)c1cc3c(cc1N2CCO)OCO3` (stereo not drawn) [SU056, 9-(3-fluorophenyl)-5-(2-hydroxyethyl)-6,9-dihydro-[1,3]dioxolo[4,5-g]furo[3,4-b]quinolin-8(5H)-one]: the concentration for half-maximal inhibition (IC50) came out at 7.15 ± 1.26 µM with 4T1 cells; 1540 ± 140 nM with E0771 cells; 1500 ± 120 nM in the data set on EMT6 cells; 1270 ± 190 nM in the data set with MDA-MB-231 cells; 1360 ± 270 nM with MDA-MB-468 cells; 1170 ± 340 nM in the data set with SUM159 cells. Also, the IC50 in data set [1] stood at 4.77 ± 1.61 µM; in [2] it was 4.65 ± 2.25 µM. For the same compound, the “time a cytotoxic concentration remained in the plasma” value in “Pharmacokinetics study” (mice) is “up to 6 h”. The half-life in the data set “Pharmacokinetics study” (female, C57BL/6J, mouse, plasma, po, 20 mg/kg, female C57BL/6J mice, plasma, read-out: half-life (T1/2)) was approximately 60 min. For the same compound, the Cmax in the data set “Pharmacokinetics study” (setting [3]) was 9980 ng/mL and 27 µM. The Tmax in the data set “Pharmacokinetics study” (setting [3]) is 15 min.
